Measurements published in PubChem BioAssay (NCI).
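Abbreviation: GI50, concentration required for 50% inhibition of growth. TGI marks complete inhibition of growth.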

What was measured:
Experiment in all cases: DTP human tumour cell line panel, 384-well format
[1] = system: 786-0 renal
[2] = system: A498 renal
[3] = system: A549 NSCLC
[4] = system: ACHN renal
[5] = system: BT-549 breast
[6] = system: CAKI-1 renal
[7] = system: CCRF-CEM leukemia
[8] = system: COLO 205 colon
[9] = system: DU-145 prostate
[10] = system: EKVX NSCLC
[11] = system: HCC-2998 colon
[12] = system: HCT-15 colon
[13] = system: HL-60(TB) leukemia
[14] = system: HOP-62 NSCLC
[15] = system: HOP-92 NSCLC
[16] = system: HS 578T breast
[17] = system: HT29 colon
[18] = system: IGROV1 ovarian
[19] = system: K-562 leukemia
[20] = system: KM12 colon
[21] = system: LOX IMVI melanoma
[22] = system: M14 melanoma
[23] = system: MALME-3M melanoma
[24] = system: MCF7 breast
[25] = system: MDA-MB-231 breast
[26] = system: MDA-MB-435 melanoma
[27] = system: MDA-MB-468 breast
[28] = system: MOLT-4 leukemia
[29] = system: NCI-H226 lung
[30] = system: NCI-H23 lung
[31] = system: NCI-H322M lung
[32] = system: NCI-H460 NSCLC
[33] = system: NCI-H522 lung
[34] = system: NCI/ADR-RES ovarian
[35] = system: OVCAR-3 ovarian
[36] = system: OVCAR-4 ovarian
[37] = system: OVCAR-5 ovarian
[38] = system: OVCAR-8 ovarian
[39] = system: PC-3 prostate
[40] = system: RPMI-8226 leukemia
[41] = system: RXF 393 renal
[42] = system: SF-268 CNS
[43] = system: SF-295 CNS
[44] = system: SF-539 CNS
[45] = system: SK-MEL-28 melanoma
[46] = system: SK-MEL-5 melanoma
[47] = system: SK-OV-3 ovarian
[48] = system: SN12C renal
[49] = system: SNB-19 CNS
[50] = system: SNB-75 CNS
[51] = system: SW-620 colon
[52] = system: T-47D breast
[53] = system: TK-10 renal
[54] = system: UACC-257 melanoma
[55] = system: UACC-62 melanoma
[56] = system: UO-31 renal

SMILES: CC1(C)CN(c2cc(C(F)(F)F)cc3cncn23)CCC12NC(=O)NC2=O (configuration not stated)
- GI50 [1]: 35.1 µM
- TGI [1]: > 100 µM
- GI50 [2]: 26 µM
- TGI [2]: > 100 µM
- GI50 [3]: 35.3 µM
- TGI [3]: > 100 µM
- GI50 [4]: 38.2 µM
- TGI [4]: > 100 µM
- GI50 [5]: 19.8 µM
- TGI [5]: > 100 µM
- GI50 [6]: 30.6 µM
- TGI [6]: > 100 µM
- GI50 [7]: 12 µM
- TGI [7]: 26.7 µM
- GI50 [8]: 68.9 µM
- TGI [8]: > 100 µM
- GI50 [9]: 40 µM
- TGI [9]: > 100 µM
- GI50 [10]: 15.1 µM
- TGI [10]: 59.7 µM
- GI50 [11]: 29.4 µM
- TGI [11]: 73.9 µM
- GI50 [12]: 40.6 µM
- TGI [12]: > 100 µM
- GI50 [13]: 14.5 µM
- TGI [13]: 27.8 µM
- GI50 [14]: 28.3 µM
- TGI [14]: > 100 µM
- GI50 [15]: 26.1 µM
- TGI [15]: > 100 µM
- GI50 [16]: 12.9 µM
- TGI [16]: 35.6 µM
- GI50 [17]: 46 µM
- TGI [17]: > 100 µM
- GI50 [18]: 27.8 µM
- TGI [18]: 75.8 µM
- GI50 [19]: 42.6 µM
- TGI [19]: > 100 µM
- GI50 [20]: 36 µM
- TGI [20]: > 100 µM
- GI50 [21]: 32.5 µM
- TGI [21]: > 100 µM
- GI50 [22]: 48.1 µM
- TGI [22]: > 100 µM
- GI50 [23]: 28.1 µM
- TGI [23]: 88.7 µM
- GI50 [24]: 26 µM
- TGI [24]: 99.6 µM
- GI50 [25]: 32.2 µM
- TGI [25]: > 100 µM
- GI50 [26]: 62.2 µM
- TGI [26]: > 100 µM
- GI50 [27]: 12.5 µM
- TGI [27]: 35.2 µM
- GI50 [28]: 12.3 µM
- TGI [28]: 25.1 µM
- GI50 [29]: 26.6 µM
- TGI [29]: > 100 µM
- GI50 [30]: 30.7 µM
- TGI [30]: > 100 µM
- GI50 [31]: 57.8 µM
- TGI [31]: > 100 µM
- GI50 [32]: 38.1 µM
- TGI [32]: > 100 µM
- GI50 [33]: 54 µM
- TGI [33]: > 100 µM
- GI50 [34]: > 100 µM
- TGI [34]: > 100 µM
- GI50 [35]: 28.4 µM
- TGI [35]: > 100 µM
- GI50 [36]: 18.8 µM
- TGI [36]: 82.6 µM
- GI50 [37]: 39.4 µM
- TGI [37]: > 100 µM
- GI50 [38]: 33.5 µM
- TGI [38]: > 100 µM
- GI50 [39]: 26.2 µM
- TGI [39]: 99.2 µM
- GI50 [40]: 15.3 µM
- TGI [40]: 45.8 µM
- GI50 [41]: 29.4 µM
- TGI [41]: > 100 µM
- GI50 [42]: 26.9 µM
- TGI [42]: > 100 µM
- GI50 [43]: 24.8 µM
- TGI [43]: 74.8 µM
- GI50 [44]: 91.7 µM
- TGI [44]: > 100 µM
- GI50 [45]: 47.8 µM
- TGI [45]: > 100 µM
- GI50 [46]: 33.5 µM
- TGI [46]: 95.7 µM
- GI50 [47]: 40.9 µM
- TGI [47]: > 100 µM
- GI50 [48]: 40.4 µM
- TGI [48]: > 100 µM
- GI50 [49]: 55.7 µM
- TGI [49]: > 100 µM
- GI50 [50]: 42.4 µM
- TGI [50]: > 100 µM
- GI50 [51]: > 100 µM
- TGI [51]: > 100 µM
- GI50 [52]: 29.2 µM
- TGI [52]: > 100 µM
- GI50 [53]: 35.5 µM
- TGI [53]: > 100 µM
- GI50 [54]: 61.3 µM
- TGI [54]: > 100 µM
- GI50 [55]: 19.2 µM
- TGI [55]: 63.7 µM
- GI50 [56]: 56.8 µM
- TGI [56]: > 100 µM
